Several values for one entry are separate records, joined by “and”; a condition that tells them apart may be missing. Identical values can stand only once.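 In this assay, cells in 96-well plates receive the compound at five concentrations for 48 hours. Endpoints are linearly interpolated between the surrounding concentrations. GI50 marks 50% less growth. TGI: concentration producing complete growth inhibition.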
Legend:
Experiment in all cases: NCI tumour cell line growth inhibition, 48 h
786-0 renal = tested on: 786-0 renal
SK-MEL-2 melanoma = tested on: SK-MEL-2 melanoma
HL-60(TB) leukemia = tested on: HL-60(TB) leukemia
BT-549 breast = tested on: BT-549 breast
LOX IMVI melanoma = tested on: LOX IMVI melanoma
SK-MEL-5 melanoma = tested on: SK-MEL-5 melanoma
HCT-15 colon = tested on: HCT-15 colon
SN12C renal = tested on: SN12C renal
DMS 114 small cell lung = tested on: DMS 114 small cell lung
DLD-1 colon = tested on: DLD-1 colon

SMILES	GI50 (786-0 renal)	TGI (786-0 renal)	GI50 (SK-MEL-2 melanoma)	TGI (SK-MEL-2 melanoma)	GI50 (HL-60(TB) leukemia)	TGI (HL-60(TB) leukemia)	GI50 (BT-549 breast)	TGI (BT-549 breast)	GI50 (LOX IMVI melanoma)	TGI (LOX IMVI melanoma)	GI50 (SK-MEL-5 melanoma)	TGI (SK-MEL-5 melanoma)	GI50 (HCT-15 colon)	TGI (HCT-15 colon)	GI50 (SN12C renal)	TGI (SN12C renal)	TGI (DMS 114 small cell lung) [µM]	TGI (DLD-1 colon) [µM]
O=C(/C(=C/c1ccc([N+](=O)[O-])cc1)SCc1ccc(F)cc1)c1ccc(Cl)cc1	10.9 µM	24.6 µM	13.8 µM	36.4 µM	4.33 µM	40.4 µM	3.38 µM	16.4 µM	1.73 µM	3.27 µM	4.33 µM	15.2 µM	2.9 µM	11.6 µM	6.94 µM	34.5 µM	–	–
COc1cc(-c2ncn(/C=C\C(=O)OC(C)C)n2)cc(C(F)(F)F)c1	0.101 µM and 0.098 µM	2.61 µM and 3.25 µM	0.0676 µM and 0.0501 µM	1.53 µM and 0.489 µM	0.0515 µM and 0.051 µM	4.58 µM and 4.07 µM	0.0351 µM and 0.0343 µM	1.03 µM and 1.69 µM	0.0271 µM and 0.0287 µM	0.39 µM and 0.524 µM	0.274 µM and 0.11 µM	1.8 µM and 2.72 µM	0.0715 µM and 0.0543 µM	7.93 µM and 6.39 µM	0.28 µM and 0.314 µM	11.7 µM and 11 µM	–	–
c1ccc2c(c1)[nH]c1c2nc2ncccn21	–	> 100 µM	–	> 100 µM	–	–	–	–	–	–	–	> 100 µM	–	–	–	> 100 µM	> 100	> 100
COc1ccc(OC)c(-c2cc(=O)c3c(OC)c(OC)c(OC)c(OC)c3o2)c1	–	92.2 µM	–	49.3 µM	–	> 100 µM	–	> 100 µM	–	76.1 µM	–	39.1 µM	–	77.5 µM	–	> 100 µM	–	–
CCc1cc2c(cc1N1CCC(N3CCOCC3)CC1)C(C)(C)c1[nH]c3cc(C#N)ccc3c1C2=O	1.87 µM and 1.71 µM	4.01 µM and 3.76 µM and 3.46 µM	2.62 µM and 2.86 µM and 5.46 µM	9.13 µM and 9.77 µM and > 10 µM	1.7 µM and 1.02 µM and 0.443 µM	> 100 µM	1.49 µM and 1.6 µM	3.69 µM and 3.87 µM	1.63 µM and 1.73 µM and 1.52 µM	6.38 µM and 5.47 µM and 4.19 µM	1.12 µM and 1.5 µM and 3 µM	19.2 µM and 14.2 µM and > 10 µM	2.02 µM and 1.35 µM and 1.14 µM	> 33.4 µM and 10.6 µM and 3.75 µM	2.23 µM and 1.44 µM and 1.55 µM	8.69 µM and 6.23 µM and 4.5 µM	–	–
O=C(NCC(O)CNC(=O)C(F)(F)F)C(F)(F)F	–	> 100 µM	–	–	–	> 100 µM	–	–	–	> 100 µM	–	> 100 µM	–	> 100 µM	–	> 100 µM	> 100	> 100
O=C1c2ccccc2C(=O)N1C/C=C/CO	–	> 100 µM	–	> 100 µM	–	> 100 µM	–	–	–	–	–	> 100 µM	–	> 100 µM	–	> 100 µM	> 100	> 100
COc1cccc2c1c(C1=C(c3cn(C)c4ccccc34)C(=O)NC1=O)cn2C	> 25 µM	> 25 µM	> 25 µM	> 25 µM	> 25 µM	> 25 µM	> 25 µM	> 25 µM	> 25 µM	> 25 µM	> 25 µM	> 25 µM	> 25 µM	> 25 µM	> 25 µM	> 25 µM	–	–
COc1ccc(-c2c(-c3cc(OC)c(OC)c(OC)c3)noc2N)cc1	< 0.017 µM	–	0.0188 µM	81.4 µM	0.0215 µM	0.0589 µM	0.0215 µM	0.0673 µM	< 0.0141 µM	> 100 µM	< 0.01 µM	0.257 µM	< 0.0115 µM	> 100 µM	0.0374 µM	> 69.8 µM	–	–
O=C(Nc1nc2ccc(F)cc2s1)c1cccnc1Nc1ccc(Cl)cc1	2.93 µM	> 100 µM	2.11 µM	6.45 µM	1.6 µM	5.8 µM	2.77 µM	> 29.3 µM	2.66 µM	> 28.8 µM	1.39 µM	3.38 µM	2.74 µM	> 100 µM	2.63 µM	> 100 µM	–	–
COC(=O)[C@H](Cc1ccc(O)cc1)NC(=O)[C@@H](OC)[C@@H]1Cc2cc3cc(OC4CC(OC5CC(O)C(O)C(C)O5)C(O)C(C)O4)c(C)c(O)c3c(O)c2C(=O)[C@H]1OC1CC(OC2CC(OC3CC(C)(O)C(O)C(C)O3)C(O)C(C)O2)C(O)C(C)O1 (some centres undefined)	0.16 µM	> 25 µM	0.1 µM	0.748 µM	0.614 µM	> 25 µM	0.0782 µM	2.09 µM	0.0316 µM	> 25 µM	0.0428 µM	0.448 µM	1.95 µM	> 25 µM	0.0595 µM	> 25 µM	–	–
COc1cc2c(cc1OC)C(=O)Cc1ccc(OC)c(OC)c1CN(C)CC2	–	> 100 µM	–	> 100 µM	–	–	–	–	–	> 100 µM	–	> 100 µM	–	> 100 µM	–	> 100 µM	> 100	> 100
CCCCCCc1nc2nc(Cl)c(Cl)nc2[nH]1	> 100 µM	> 100 µM	5.58 µM	> 100 µM	6.84 µM	> 100 µM	22.5 µM	> 100 µM	6.24 µM	> 100 µM	2.61 µM	> 100 µM	5.06 µM	> 100 µM	4.26 µM	> 100 µM	–	–
CN(C)CCCNC(=O)c1cncnc1Nc1ccc(OCc2cccc(F)c2)c(Cl)c1	1.66 µM	3.1 µM	2.08 µM	4.07 µM	1.67 µM	3.52 µM	1.59 µM	3.06 µM	1.44 µM	2.81 µM	1.71 µM	3.08 µM	1.38 µM	2.75 µM	1.67 µM	3.14 µM	–	–
O=c1oc(=O)c2oc3ccccc3oc1=2	–	> 100 µM	–	> 100 µM	–	> 100 µM	–	–	–	> 100 µM	–	–	–	> 100 µM	–	> 100 µM	> 100	> 100
O=C(COC(=O)c1cccc2c(=O)c3ccccc3[nH]c12)Nc1ccccc1	–	> 100 µM	–	–	–	36.1 µM	–	–	–	73.2 µM	–	42.7 µM	–	–	–	> 100 µM	59.3	> 100
CCOc1ccccc1NC(=O)CCc1n[nH]c(=S)o1	–	> 100 µM	–	> 100 µM	–	> 100 µM	–	–	–	> 100 µM	–	> 100 µM	–	–	–	> 100 µM	–	> 100
C=C(C)[C@@H]1CC[C@]2(CO)CC[C@]3(C)[C@H](CC[C@@H]4[C@@]5(C)CCC(NCCc6ccc(O)cc6)C(C)(C)[C@@H]5CC[C@]43C)[C@@H]12 (some centres undefined)	1.66 µM	3.26 µM	1.68 µM	3.19 µM	1.49 µM	3.67 µM	1.75 µM	3.27 µM	0.783 µM	2.09 µM	1.47 µM	2.8 µM	1.23 µM	2.68 µM	1.67 µM	3.19 µM	–	–
